Legend:
[1] = system: patients with KRAS G12C-mutated NSCLC, CRC, or other solid tumors; conditions: N = 27, all RMC-4630 doses with sotorasib 960 mg QD; TRAEs related to the labelled drug (combination: either drug)
Text: Note that D1D4 indicates administration of Day 1 and Day 4 of each 7 days.
Dose exploration will begin with treating 3-4 subjects at Dose Level 1. The study dose-limiting toxicity (DLT) period is 21 days. Once all subjects enrolled at a certain dose level and schedule are DLT evaluable, a Dose Level Review Team (DLRT) meeting will be convened. For any dose level (including Dose Level 1), and depending on observed safety data, the following may occur: 1) dose escalation to the next highest dose level or 2) additional enrollment to the current dose level or 3) dose de-escalation to the next lowest dose level. Rules for dose-escalation/de-escalation are derived using a modified Toxicity Probability Interval-2 (mTPI-2) model (Guo et al, 2017) with a target toxicity probability of 0.30 (Table 2)
The grading of adverse events will be based on the guidelines provided in the CTCAE version 5.0. […] A subject without a DLT will not be DLT evaluable if the date of decision to end both investigational products is before the completion of the DLT window.
The adverse event grading scale to be used for this study will be the CTCAE v5.0. The investigator is responsible for ensuring that all serious adverse events observed by the investigator or reported by the subject that occur after the signing of the informed consent through the safety follow-up visit or 30 days after last day of dosing interval of investigational product(s)/protocol-required therapies, whichever is later, are reported using the Events CRF. The criteria for grade 4 in the CTCAE grading scale differs from the regulatory criteria for serious adverse events. If adverse events correspond to a grade 4 CTCAE toxicity grading scale criteria (e.g., laboratory abnormality reported as grade 4 without manifestation of life-threatening status), it will be left to the investigator's judgment to also report these abnormalities as serious adverse events. For any adverse event that applies to this situation, comprehensive documentation of the event's severity must be recorded in the subject medical records. If the investigator becomes aware of serious adverse events suspected to be related to investigational products after the protocol-required reporting period is complete, then these serious adverse events will be reported within 24 hours following the investigator's awareness of the event using the Events CRF. Since a study endpoint is overall survival, the investigator will also need to collect/report fatal serious adverse events (regardless of causality) within 24 hours following investigator's awareness of the event. […] However, if the investigator becomes aware of serious adverse events suspected to be related to investigational products, then these serious adverse events will be reported within 24 hours following the investigator's awareness of the event. Serious adverse events reported outside of the protocol-required reporting period will be captured within the safety database as clinical trial cases and handled accordingly based on relationship to investigational product. If further safety related data is needed to fulfill any regulatory reporting requirements for a reportable event, then additional information may need to be collected from the subject's records after the subject ends the study.
The primary endpoint was safety/tolerability. Secondary endpoints included objective response rate per RECIST 1.1 and pharmacokinetics.

[2] = Phase 1b study of sotorasib in combination with RMC-4630: pharmacokinetic analysis; format: in vivo, human; conditions: sotorasib 960 mg QD + RMC-4630 100, 140 or 200 mg; compared with monotherapy studies
Text: The primary endpoint was safety/tolerability.

[3] = Concomitant administration of sotorasib with acid reducing agents; format: in vivo; conditions: with proton pump inhibitors (e.g., omeprazole) or H2-receptor antagonists (e.g., famotidine)
[4] = system: phosphorylation of extracellular signal-regulated kinase (ERK); conditions: preclinical studies; cited from earlier work

## C=CC(=O)N1CCN(c2nc(=O)n(-c3c(C)ccnc3C(C)C)c3nc(-c4c(O)cccc4F)c(F)cc23)[C@@H](C)C1 [Sotorasib, 6-fluoro-7-(2-fluoro-6-hydroxyphenyl)-(1M)-1-[4-methyl-2-(propan-2-yl)pyridin-3-yl]-4-[(2S)-2-methyl-4-(prop-2-enoyl)piperazin-1-yl]pyrido[2,3-d]pyrimidin-2 (1H)-one]
[1]
  AST increased, All Grades, %: 4%
  AST increased, Grade 3, %: 4%
  Ascites, All Grades, %: 4%
  Ascites, Grade 3, %: 4%
  Colitis, All Grades, %: 4%
  Colitis, Grade 3, %: 4%
  Diarrhea, All Grades, %: 26%
  Diarrhea, Grade 3, %: 7%
  Dry mouth, All Grades, %: 11%
  Dyspnea, All Grades, %: 4%
  Dyspnea, Grade 3, %: 4%
  Edema (general, peripheral, periorbital, facial), All Grades, %: 26%
  Fatigue, All Grades, %: 11%
  Total TRAE, All Grades, %: 56%
  Total TRAE, Grade 3, %: 22%
[2]
  Average exposure in the combination: consistent with distributions observed in monotherapy studies
[3]
  Sotorasib concentrations on concomitant administration: decreased sotorasib concentrations
[4]
  Inhibition of ERK phosphorylation: inhibited nearly all detectable phosphorylation

From patent publication US20260144793A1, “METHODS OF TREATING CANCER” (AMGEN INC., priority 2022, published 2026)
